# Experimental data as given in US20220265657A1, “ADMINISTRATION METHOD AND DOSAGE REGIMEN FOR TREATMENT OF NEURODEGENERATIVE DISEASES USING TRAMETINIB AND MARKERS” (GENUV INC., priority 2019, published 2022).
# Legend:
# primary cortical neurons = test: Immunofluorescence of LC3, LAMP1 and lysotracker in primary cortical neurons; format: cell-based, ICR mice; settings: even in the presence of Aβ1-42 oligomers
# Method: Cell culture: SH-SY5Y neuroblastoma cells were cultured at 37° C., 5% CO2., in Dulbecco's Modified Eagle Medium/Ham's F-12 nutrient mixture (DMEM/F12) (Invitrogen, Carlsbad, Calif.) supplemented with 10% heat-inactivated fetal bovine serum containing 100 units/ml penicillin, 100 μg/ml streptomycin. Primary cortical neuron cultures were derived from embryo day 18 (E18) from ICR mice. The dissociated cells were plated on glass cover slips coated with poly-D-lysine in Neurobasal medium supplemented with 2% B27 (Invitrogen), 100 units/ml penicillin, 100 μg/ml streptomycin, and 2 mM L-glutamine. Primary NSCs from normal mice were isolated from the subventricular zone (SVZ) of 8 week-old C57BL/6 mice brain. NSCs from adult Tg2576 mice brain were obtained from Seoul National University Hospital. […]
# Immunocytochemistry: SH-SY5Y cells or adult NSCs were placed on glass coverslips coated with poly-L-ornithine/laminin or poly-D-lysine, respectively. […] The percentage of coefficient was calculated using the pixels above threshold of fluorescence intensities. […] The fluorescence intensity was observed under a confocal microscopy using a LSM700 microscope (Carl Zeiss). The number of LysoTracker puncta was analyzed with Icy software.
# SH-SY5Y cells = test: Western blot of SH-SY5Y cell lysates; format: cell-based
# Method: Cell culture: SH-SY5Y neuroblastoma cells were cultured at 37° C., 5% CO2., in Dulbecco's Modified Eagle Medium/Ham's F-12 nutrient mixture (DMEM/F12) (Invitrogen, Carlsbad, Calif.) supplemented with 10% heat-inactivated fetal bovine serum containing 100 units/ml penicillin, 100 μg/ml streptomycin. Primary cortical neuron cultures were derived from embryo day 18 (E18) from ICR mice. The dissociated cells were plated on glass cover slips coated with poly-D-lysine in Neurobasal medium supplemented with 2% B27 (Invitrogen), 100 units/ml penicillin, 100 μg/ml streptomycin, and 2 mM L-glutamine. Primary NSCs from normal mice were isolated from the subventricular zone (SVZ) of 8 week-old C57BL/6 mice brain. NSCs from adult Tg2576 mice brain were obtained from Seoul National University Hospital. The neurospheres were cultured as previously described (M. Y. Kim, B. S. Moon, K. Y. Choi, Isolation and maintenance of cortical neural progenitor cells in vitro. Methods Mol Biol 1018, 3-10 (2013)). For neurosphere culture from normal mice, the cells were dissociated from brain tissue and grown in N2 medium in 25 cm^2 flasks (SPL, Gyeonggi-do, Korea) in suspension. bFGF (20 ng/ml, Peprotech, Princeton, N.J.) and human EGF (20 ng/ml, Peprotech) were added to the media to allow the cells to form neurospheres. For analyses, NSCs were cultured as a monolayer. For differentiation of NSCs, the neurospheres were dissociated with TrypLE (Invitrogen), plated on 15 μg/ml poly-L-ornithine-(Sigma-Aldrich, St. Louis, Mo.) and 10 μg/ml fibronectin (Gibco)-coated plates, and cultured in bFGF- and EGF-depleted N2 medium for 2 days. For neurosphere culture from Tg2576 mice, the cells were grown in DMEM/F12 supplemented with B27 supplements in 75 cm^2 flasks (SPL) in suspension. bFGF (10 ng/ml) and human EGF (10 ng/ml) were added to the media to allow the cells to form neurospheres. For inducing differentiation and AP expression, the neurospheres were dissociated with pipetting, plated on 15 μg/ml poly-L-ornithine- and 10 μg/ml fibronectin (Gibco)-coated plates, and cultured in bFGF- and EGF-depleted medium for 2 days.
# Lysates were centrifuged at 13,000 rpm for 20 min at 4° C., and the protein content in the supernatant was determined using the Bradford assay (Bio-rad, Hercules, Calif.). For subcellular fractionation, cells were lysed with lysis buffer (250 mM Sucrose, 20 mM HEPES, pH 7.4, 10 mM KCl, 1.5 mM MgCl2, 1 mM EGTA, 1 mM EDTA, 1 mM DTT) containing protease inhibitor for 30 min on ice, followed by centrifugation at 720 g for 5 min at 4° C. Supernatants were centrifuged at 15,000 rpm for 10 min at 4° C., and the resulting supernatant was used as the cytosol fraction. After centrifugation at 720 g for 5 min, pellets were washed with lysis buffer and dissolved in nuclear lysis buffer (50 mM Tris HCl, pH 8.0, 150 mM NaCl, 1% NP40, 0.5% sodium deoxycholate, 0.1% SDS, 10% glycerol) as the nuclear fraction. Protein from each sample was subjected to 8%˜15% SDS-PAGE, and the resolved proteins were transferred to nitrocellulose or polyvinylidene fluoride membrane. The membranes were blocked with 5% nonfat milk powder in Tris-buffered saline/Tween 20 (TBST) for 1 h at room temperature, then incubated with anti-phospho-ERK (Cell signaling), anti-ERK (Cell signaling), anti-LAMP1 (Abcam), anti-LC3 (Cell signaling), anti-cathepsin B (Cell signaling), anti-p62 (Cell signaling), anti-p62 (5114, Cell signaling), anti-phospho-mTOR (5536, Cell signaling), anti-mTOR (2983, Cell signaling), anti-phospho-ULK1 (14202, Cell signaling), anti-ULK1 (8054, Cell signaling), anti-TFEB (852501, Biolegend), and anti-GAPDH (Cell signaling) overnight at 4° C.
# 5XFAD mice = test: Behavioral studies: Y-maze and novel object recognition tests; format: in vivo
# Method: Trametinib treatment: Trametinib (Medchemexpress, Monmouth Junction, N.J.) was micronized and suspended in the vehicle containing 5% mannitol, 1.5% hydroxypropyl methylcellulose and 0.2% sodium lauryl sulfate. For pharmacokinetic analysis, 0.05, 0.2 and 0.8 mg/kg of trametinib were orally administered to 7-week-old normal mice (ICR, n=5 per group) as a single administration. […] For studies on the change in pERK expression in normal mice and whole cell RNA sequencing study, 0.1 mg/kg/day of trametinib (in 4% DMSO+96% corn oil) was orally administered to 6-week old C57BL/6 mice (n=3 per group). Mice were sacrificed after 1, 2, 3, or 4 weeks of administration. 5XFAD mice (male, n=7˜10 per group) were divided into vehicle and trametinib treated groups. 12-month old mice received vehicle or 0.1 mg/kg of trametinib for 1 month by oral gavage once a day (These mice are referred to as “13-month old 5XFAD mice” in the Examples). […] Blood was obtained after completion of treatment.
# [1] = tested on: patient with Alzheimer's disease; test: Therapeutic effects of trametinib in humans; format: in vivo, human; settings: daily for at least four weeks, brain Cmax at least 0.25 ng/g
# Method: Trametinib is administered to a patient with Alzheimer's disease in an amount that provides a mean peak trametinib concentration (Cmax) of at least 0.25 ng/g in the brain. The administration is performed daily for at least four weeks.
# [2] = SH-SY5Y cells treated with Aβ1-42
# [3] = SH-SY5Y cells, in the presence of Aβ1-42 oligomers
smiles,measurement,setting,value
CC(=O)Nc1cccc(-n2c(=O)n(C3CC3)c(=O)c3c(Nc4ccc(I)cc4F)n(C)c(=O)c(C)c32)c1 [trametinib],co-staining of LC3-LAMP1,primary cortical neurons,increased co-staining of LC3-LAMP1
same,lysotracker-positive acidic puncta,primary cortical neurons,increased
same,increase of LC3-II/LC-I level compared to Aβ1-42 treated alone cells,SH-SY5Y cells; [2],65%
same,increase of mature cathepsin B level compared to Aβ1-42 treated alone cells,SH-SY5Y cells; [2],44%
same,nuclear translocation of TFEB,SH-SY5Y cells; [3],induced nuclear translocation of TFEB
same,p62 as a marker of autophagic flux,SH-SY5Y cells; [3],Degradation of p62
same,phosphorylation of mTOR and ULK1 on Ser758,SH-SY5Y cells; [3],inhibited the phosphorylation
same,memory formation in Y-maze and novel object recognition tests,5XFAD mice,recovery of memory formation
same,behavioral and/or physiological symptoms associated with Alzheimer's disease,[1],reduces behavioral and/or physiological symptoms associated with Alzheimer's disease
